Test results from US20220000853A1, “FORMULATIONS, METHODS, KIT, AND DOSAGE FORMS FOR IMPROVED STABILITY OF AN ACTIVE PHARMACEUTICAL INGREDIENT” (Asana BioSciences, LLC, priority 2018, published 2022).
Counter-ions that a name gives are not always drawn.

Key:
[1] = Stability tests of COMPOUND A formulations at 40° C./75% RH (discoloration, viscosity, physical state); format: physicochemical; conditions: poloxamer gel formulations, even at higher concentrations of the salt; expected
From the text: Table 5 below provides % w/w for COMPOUND A bromide salt polyethylene glycol ointment.

[2] = Tachyphylaxis study: body weight, application site and distress observations; format: in vivo
Description: For all three phases, the mice were subjected to the pruritis model as described in Example 2. Upon completion of the scratching assessment mice were placed in their home cage and examined at 24 hours for any adverse skin reactions. Phase 3 animals were euthanized for blood collection following completion of the scratching counts. The condition of the site of injection was examined and observations of redness, swelling or abrasions due to scratching were made following scratch counting and at 24 hours post drug application Animals were euthanized upon completion of the final observations. One mouse died during anesthesia on day 5 after application of 3% drug and one mouse was euthanized because of weight loss. Blood plasma was collected on day 5 following the behavior in the Phase 3 animals. Plasma samples were stored on dry ice until analysis. Data was collected, tabulated and analyzed as described in Example 1, and the results of each phase are discussed below.
This study was performed in three phases, to examine the effect of the successive dosing of poloxamer gel formulations according to the present specification, COMPOUND A (1%) COMPOUND A (3%) and COMPOUND A (3% with gel removal 3 hours after application) on scratching behavior after 5 days of treatment. During Phase 1 of this study, four groups of mice (each n=4) received topical poloxamer gel, COMPOUND A (1%) and COMPOUND A (3%) drug. One group received topical application of COMPOUND A (3%), which was removed after 3 hours. To remove the formulation, a piece of gauze that had been saturated with distilled water was used to gently wipe (not rub) the application site from the rostral end to the caudal end 3 times. The skin was then patted dry with clean gauze. If there were lesions present on the skin, then extra care is taken to avoid irritation or redness.
This treatment was continued for 5 days without any CQ injections. On day 5 all these mice received intradermal CQ 3 hours after the last application of the drug (n=4).

[3] = Observations in mice after single topical application (motor function, reflexes, weakness, grip strength, application site); format: in vivo
Description: 3% COMPOUND A in each of the three vehicle formulations prepared as described in Example 1 above—poloxamer (from Table 4 above); hydroxyethylcellulose (HEC) and polyethylene glycol (Ointment) (50 μl) was applied topically to the skin 6 hours prior to the intradermal injection of chloroquine (CQ) (4 mg/ml, 50 μl). […] Following intradermal CQ injection in the ipsilateral neck area, the number of scratches was counted and cumulative counts were recorded by an automated machine for 40 minutes.
Recovery: The condition of the site of injection was examined and observations of redness, swelling or abrasions due to scratching were made prior to and following scratch counting. Animals were euthanized upon completion of the final observations.
Different test articles comprising varying concentrations of COMPOUND A in hydroxyethyl cellulose (HEC) formulations of the specification (“Gel”) and in dimethylsulfoxide (DMSO) vehicle were tested on mice according to the pruritis model described in Example 2. The same strain of mice was used and the animals were housed in the same manner. Each treatment group consisted of 8 mice, and test articles Gel+COMPOUND A 0.3%, 1%, 3% and 5%, and DMSO+COMPOUND A 3% and 5%, were applied topically to the skin six hours prior to the intradermal injection of chloroquine (CQ) (4 mg/ml, 50 μl). […] Following intradermal CQ injection in the ipsilateral neck area, the number of scratches were counted and cumulative counts were recorded by the automated machine for 40 minutes. Following observation, animals were euthanized. In selected groups (Gel+3% COMPOUND A and Gel+5% COMPOUND A) plasma was harvested at 7 hours following the scratch counting. […] Harvested plasma samples were stored at −20° C. prior to analysis.
The carrier gel alone, with no drug, is referred to as “Gel.” Gel and Gel+COMPOUND A 1%,” “Gel+COMPOUND A 2%” and “Gel+COMPOUND A 3% were applied topically to the skin of groups of 8 mice, each of which were subjected to chloroquine injection (CQ; 4 mg/ml, 50μl) according to the pruritis model described in Example 2 at different time points (3 hours, 6 hours and 15 hours) post application of the test or control articles. The same strain of mice as in Example 2 was used, and the animals were housed in the same manner.

[4] = Single ascending dose first-in-human study: tactile stimulation with Semmes-Weinstein microfilaments; format: in vivo; conditions: healthy subjects, treated area of the forearm, normal skin
Description: (§1) Four single ascending dose cohorts (six active and two placebo subjects per cohort) were evaluated after topical application of a COMPOUND A topical poloxamer gel at an application rate of 82, 164, 328 and 492 μg active moiety/cm^2 on the volar forearm over a 10 cm^2 area. Two concentrations of a COMPOUND A topical poloxamer gel: 1% (0.82% active moiety) and 3% (2.46% active moiety) were evaluated in this study. The 1% and 3% gels used were made as described in Example 1 above. Safety was evaluated via hematology, biochemistry and urinalysis clinical laboratory analyses, electrocardiograms and adverse event collection for 14 days following dose administration. The clinical laboratory analyses included hematocrit; Hgb; MCH; MCHC; MCV; MPV; PLT; RBC; WBC and differentials (neutrophils, lymphocytes, monocytes, eosinophils, and basophils relative and absolute); biochemistry albumin; alkaline phosphatase; ALT; AST; chloride; creatinine (enzymatic); GGT; glucose random; LDH; potassium; sodium; total bilirubin; urea (BUN); uric acid; urinalysis color, clarity, pH, specific gravity, bilirubin, glucose, ketones, leukocytes, nitrite, blood, protein, urobilinogen and microscopic analysis. Local skin tolerability was assessed using a 4-point ordinal scale, and serial plasma samples for PK analysis were collected for up to 7 days post-application. […]

[5] = Single ascending dose first-in-human study: safety and tolerability; format: in vivo; conditions: healthy subjects
Description: The objective of this study was to evaluate the safety, tolerability, pharmacokinetics and effect on tactile stimulation of topical formulations of COMPOUND A in healthy subjects.
Four single ascending dose cohorts (six active and two placebo subjects per cohort) were evaluated after topical application of a COMPOUND A topical poloxamer gel at an application rate of 82, 164, 328 and 492 μg active moiety/cm^2 on the volar forearm over a 10 cm^2 area. Two concentrations of a COMPOUND A topical poloxamer gel: 1% (0.82% active moiety) and 3% (2.46% active moiety) were evaluated in this study. The 1% and 3% gels used were made as described in Example 1 above. Safety was evaluated via hematology, biochemistry and urinalysis clinical laboratory analyses, electrocardiograms and adverse event collection for 14 days following dose administration. The clinical laboratory analyses included hematocrit; Hgb; MCH; MCHC; MCV; MPV; PLT; RBC; WBC and differentials (neutrophils, lymphocytes, monocytes, eosinophils, and basophils relative and absolute); biochemistry albumin; alkaline phosphatase; ALT; AST; chloride; creatinine (enzymatic); GGT; glucose random; LDH; potassium; sodium; total bilirubin; urea (BUN); uric acid; urinalysis color, clarity, pH, specific gravity, bilirubin, glucose, ketones, leukocytes, nitrite, blood, protein, urobilinogen and microscopic analysis. Local skin tolerability was assessed using a 4-point ordinal scale, and serial plasma samples for PK analysis were collected for up to 7 days post-application. The 4-point ordinal scale used was as follows: 0 (None); 1 (Mild); 2 (Moderate); 3 (Severe) for each of the following: erythema, stinging, itching, burning, desquamation, edema, and pain. Semmes-Weinstein microfilaments were used to assess response to tactile stimulation on the treated area of the forearm; these microfilaments were the same as those commonly used to test patients for diabetic neuropathy.

[6] = Single ascending dose first-in-human study: plasma pharmacokinetics; format: in vivo; conditions: healthy subjects, topical poloxamer gel, most samples; quantifiable limit
Description: as §1

[7] = test system: sodium channel; conditions: through capsaicin-activated TRPV1 channels; cited from earlier work
[8] = following single topical application of the drug

Cc1ccccc1N(CC[C@H]1CCCC[N+]1(C)C)C1Cc2ccccc2C1 [COMPOUND A methanesulfonate salt, (R)-2-(2-((2,3-dihydro-1H-inden-2-yl)(o-tolyl)amino)ethyl)-1,1-dimethylpiperidin-1-ium]
Discoloration [1]: little to no discoloration

Cc1ccccc1N(CC[C@H]1CCCC[N+]1(C)C)C1Cc2ccccc2C1 [COMPOUND A, (R)-2-(2-((2,3-dihydro-1H-inden-2-yl)(o-tolyl)amino)ethyl)-1,1-dimethylpiperidin-1-ium]
Recovery ([2]; Phase 1, observed until day 9): they all recovered their weight and from their redness | Body weight ([2]; Phase 1, poloxamer gel 1% and 3%, 5 days): slight drop in the weight | Lethargy or distress ([2]; Phase 1, poloxamer gel, 5 days): No signs of lethargy or distress were observed | Skin at the site of application ([2]; Phase 1, poloxamer gel, 5 days (scaly by day 3; redness Day 4 and 5, no gel removal)): scaly texture at the site of application | Body weight ([2]; Phase 2, poloxamer gel 0.1% and 0.3%, 5 days): No weight loss was observed | Scratching at the site of application prior to injection of CQ ([3]; 3% in HEC gel, poloxamer gel or ointment): did not display scratching | Weakness ([3]; following single topical application): No weakness was observed | Motor function (measured by placing and stepping) [3, 8]: normal | Pinna and corneal reflexes [3, 8]: normal | Tactile stimulation assessments [4]: No trends were noted | Local tolerability of the gels (4-point ordinal scale) ([5]; topical poloxamer gel 1% and 3%): Excellent local tolerability | Tolerability of all doses ([5]; topical poloxamer gel 1% and 3%, single dose 82, 164, 328 and 492 μg active moiety/cm^2, volar forearm 10 cm^2): well-tolerated | Dose-limiting toxicities or treatment-related adverse events ([5]; up to the highest administered dose (492 μg active moiety/cm^2)): No dose-limiting toxicities or treatment-related adverse events were reported | Plasma concentration [6]: < 0.01 ng/mL

CC[N+](CC)(CC)CC(=O)Nc1c(C)cccc1C [QX-314]
Sodium channel activity [7]: permeates through capsaicin-activated TRPV1 channels and blocks sodium channel activity
